Source: patent US9822147B2, “Methods of treating ophthalmic diseases using NPR-B agonists” (priority 2009, dated 2017)
Numbered stars: 1 amine (or outer) side, 2 acyl side, 3 side chain; on linkers, the order of the positions; unused ones are H or OH. Square brackets hold non-standard residues; d marks the D form. Peptide text beside a SMILES is read from it. * marks the point of attachment. X3 = NCCN[C@@H]1C[C@@H](C(=O)[*:2])N([*:1])C1; X7 = N[C@@H]1CCN([*:1])[C@@H]1C(=O)[*:2]; Pro(4R-NH2) = N[C@H]1CN[C@H](C(=O)O)C1; X9 = CN(C)CC[C@@H](N[*:1])C(=O)[*:2]; dLys(Me2) = CN(C)CCCC[C@@H](N)C(=O)O; dOrn(Me2) = CN(C)CCC[C@@H](N)C(=O)O; X2 = O=C([C@H]1CCCN([*:1])C1)[*:2]; Hyp = O=C(O)[C@@H]1C[C@@H](O)CN1; NHcycloheptyl = C1CCCC(N*)CC1; NMeL = CN[C@@H](CC(C)C)C(=O)O; Nle = CCCC[C@H](N)C(=O)O; Octanoyl = CCCCCCCC(=O)*; Thz = O=C(O)[C@@H]1CSCN1

target: T1, NPR-B (Homo sapiens, UniProt P20594); experiment: NPR-B induced production of cyclic GMP in human glaucoma trabecular meshwork cells (GTM-3); type: cell-based; details: group by EC50 and Emax (CNP = 100%); Table 4; read-out: Activity (group), NPR-B activation assayed with GTM-3 cells
T1 construct: a functional assay using endogenously NPR-B expressing GTM-3 cells; endogenous in cells; host or cells: GTM-3 (human glaucoma trabecular meshwork cells)
T1 sequence (P20594 23-1047): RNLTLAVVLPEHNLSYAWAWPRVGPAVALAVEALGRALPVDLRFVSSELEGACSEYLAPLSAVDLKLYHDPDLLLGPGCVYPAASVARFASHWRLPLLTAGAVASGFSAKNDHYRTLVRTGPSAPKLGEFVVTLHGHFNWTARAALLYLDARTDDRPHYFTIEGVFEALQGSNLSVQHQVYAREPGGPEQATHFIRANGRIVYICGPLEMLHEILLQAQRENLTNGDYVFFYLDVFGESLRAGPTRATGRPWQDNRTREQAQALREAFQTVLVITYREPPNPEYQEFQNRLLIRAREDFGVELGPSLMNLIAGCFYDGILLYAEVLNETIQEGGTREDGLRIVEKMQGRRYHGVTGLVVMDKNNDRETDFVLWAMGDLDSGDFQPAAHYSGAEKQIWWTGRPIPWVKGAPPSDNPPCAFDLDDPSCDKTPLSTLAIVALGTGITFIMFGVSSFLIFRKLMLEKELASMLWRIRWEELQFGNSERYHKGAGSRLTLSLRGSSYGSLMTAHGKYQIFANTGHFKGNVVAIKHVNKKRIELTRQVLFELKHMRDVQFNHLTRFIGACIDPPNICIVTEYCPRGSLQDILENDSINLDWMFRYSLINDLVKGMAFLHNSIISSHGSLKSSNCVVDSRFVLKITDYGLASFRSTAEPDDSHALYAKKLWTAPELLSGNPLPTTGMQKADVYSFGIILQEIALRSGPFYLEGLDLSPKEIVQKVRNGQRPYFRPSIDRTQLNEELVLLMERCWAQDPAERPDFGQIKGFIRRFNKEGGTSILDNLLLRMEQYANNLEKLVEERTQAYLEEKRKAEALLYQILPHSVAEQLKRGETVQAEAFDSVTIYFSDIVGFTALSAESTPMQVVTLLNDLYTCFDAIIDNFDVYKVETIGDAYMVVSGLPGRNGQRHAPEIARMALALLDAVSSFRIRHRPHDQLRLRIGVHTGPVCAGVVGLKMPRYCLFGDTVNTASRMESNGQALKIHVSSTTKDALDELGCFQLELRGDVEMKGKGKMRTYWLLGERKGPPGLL

EC50, < 1000 nM:
CCCCCCCC(=O)N1CCC[C@H](C(=O)N[C@@H](Cc2ccccc2)C(=O)N[C@H](CC(C)C)C(=O)N[C@@H](CC(C)C)C(=O)N2C[C@H](O)C[C@H]2C(=O)N(C)[C@@H](CC(C)C)C(=O)N[C@@H](CC(=O)O)C(=O)N2CSC[C@H]2C(=O)NC2CCCCCC2)C1 [JAL-1638, Occ-Sni-Phe-leu-Leu-Hyp-Nml-Asp-Eaz-Che] (Octanoyl-[X2]F[dL]L[Hyp][NMeL]D[Thz]-NHcycloheptyl)
CCCCCCCC(=O)N1CCC[C@H](C(=O)N[C@@H](Cc2ccccc2)C(=O)N[C@H](CC(C)C)C(=O)N[C@@H](CCCC)C(=O)N2C[C@H](O)C[C@H]2C(=O)N(C)[C@@H](CC(C)C)C(=O)N[C@@H](CC(=O)O)C(=O)N2CCC[C@H]2C(=O)NC2CCCCCC2)C1 [JAL-1657, Occ-Sni-Phe-leu-Nle-Hyp-Nml-Asp-Pro-Che] (Octanoyl-[X2]F[dL][Nle][Hyp][NMeL]DP-NHcycloheptyl)
CCCCCCCCCC(=O)N1CCC[C@H](C(=O)N[C@@H](Cc2ccccc2)C(=O)N[C@H](CC(C)C)C(=O)N[C@@H](CC(C)C)C(=O)N2C[C@H](O)C[C@H]2C(=O)N(C)[C@@H](CC(C)C)C(=O)N[C@@H](CC(=O)O)C(=O)N[C@@H](CCCNC(=N)N)C(=O)N[C@H](C(N)=O)[C@@H](C)CC)C1 [JAL-1666, 5587-Sni-Phe-leu-Leu-Hyp-Nml-Asp-Arg-Ile-NH2] (HELM PEPTIDE1{[CCCCCCCCCC(=O)[*:2]].[O=C([C@H]1CCCN([*:1])C1)[*:2]].F.[dL].L.[Hyp].[meL].D.R.I.[am]}$$$$V2.0)
CCCCCCCC(=O)N[C@H]1CCN([C@@H](Cc2ccccc2)C(=O)N[C@H](CC(C)C)C(=O)N[C@@H](CC(C)C)C(=O)N2C[C@H](O)C[C@H]2C(=O)N(C)[C@@H](CC(C)C)C(=O)N[C@@H](CC(=O)O)C(=O)N[C@@H](CCCNC(=N)N)C(=O)N[C@H](C(N)=O)[C@@H](C)CC)C1=O [JAL-1671, Occ-(AFL)-leu-Leu-Hyp-Nml-Asp-Arg-Ile-NH2]
CCCCCCCC(=O)N1CCC[C@H](C(=O)N[C@@H](Cc2ccccc2)C(=O)N[C@H](CC(C)C)C(=O)N[C@@H](CC(C)C)C(=O)N2C[C@H](O)C[C@H]2C(=O)N(C)[C@@H](CC(C)C)C(=O)N[C@@H](CC(=O)O)C(=O)N2CC[C@@H](N)[C@H]2C(=O)NC2CCCCCC2)C1 [JAL-1679, Occ-Sni-Phe-leu-Leu-Hyp-Nml-Asp-Pca-Che] (Octanoyl-[X2]F[dL]L[Hyp][NMeL]D[X7]-NHcycloheptyl)
CCCCCCCC(=O)N1CCC[C@H](C(=O)N[C@@H](Cc2ccccc2)C(=O)N[C@H](CC(C)C)C(=O)N[C@@H](CC(C)C)C(=O)N2C[C@H](O)C[C@H]2C(=O)N(C)[C@@H](CC(C)C)C(=O)N[C@@H](CC(=O)O)C(=O)N[C@@H](CCCNC(=N)N)C(=O)NC2CCCCCC2)C1 [JAL-1680, Occ-Sni-Phe-leu-Leu-Hyp-Nml-Asp-Arg-Che] (Octanoyl-[X2]F[dL]L[Hyp][NMeL]DR-NHcycloheptyl)
CCCCCCCC(=O)N1CCC[C@H](C(=O)N[C@@H](Cc2ccccc2)C(=O)N[C@H](CC(C)C)C(=O)N[C@@H](CC(C)C)C(=O)N2C[C@H](NCCN)C[C@H]2C(=O)N(C)[C@@H](CC(C)C)C(=O)N[C@@H](CC(=O)O)C(=O)N[C@@H](CCCNC(=N)N)C(=O)NC2CCCCCC2)C1 [JAL-1681, Occ-Sni-Phe-leu-Leu-Tap(Ae)-Nml-Asp-Arg-Che] (Octanoyl-[X2]F[dL]L[X3][NMeL]DR-NHcycloheptyl)
CCCCCCCC(=O)N1CCC[C@H](C(=O)N[C@@H](Cc2ccccc2)C(=O)N[C@H](CC(C)C)C(=O)N[C@@H](CC(C)C)C(=O)N2C[C@H](N)C[C@H]2C(=O)N(C)[C@@H](CC(C)C)C(=O)N[C@@H](CC(=O)O)C(=O)N[C@@H](CCCNC(=N)N)C(=O)NC2CCCCCC2)C1 [JAL-1682, Occ-Sni-Phe-leu-Leu-Tap-Nml-Asp-Arg-Che] (Octanoyl-[X2]F[dL]L[Pro(4R-NH2)][NMeL]DR-NHcycloheptyl)
CCCCCCCC(=O)N1CCC[C@H](C(=O)N[C@@H](Cc2ccccc2)C(=O)N[C@H](CC(C)C)C(=O)N[C@@H](CC(C)C)C(=O)N2C[C@H](O)C[C@H]2C(=O)N(C)[C@@H](CC(C)C)C(=O)N[C@@H](CO)C(=O)N[C@@H](CCCNC(=N)N)C(=O)NC2CCCCCC2)C1 [JAL-1752, Occ-Sni-Phe-leu-Leu-Hyp-Nml-Ser-Arg-Che] (Octanoyl-[X2]F[dL]L[Hyp][NMeL]SR-NHcycloheptyl)
CCCCCCCC(=O)N1CCC[C@H](C(=O)N[C@@H](Cc2ccccc2)C(=O)N[C@H](CC(C)C)C(=O)N[C@@H](CC(C)C)C(=O)N2C[C@H](O)C[C@H]2C(=O)N(C)[C@@H](CC(C)C)C(=O)N[C@H](C(=O)N[C@@H](CCCNC(=N)N)C(=O)NC2CCCCCC2)[C@@H](C)O)C1 [JAL-1753, Occ-Sni-Phe-leu-Leu-Hyp-Nml-Thr-Arg-Che] (Octanoyl-[X2]F[dL]L[Hyp][NMeL]TR-NHcycloheptyl)
CCCCCCCC(=O)N1CCCC2(CCN(C(Cc3ccccc3)C(=O)N[C@H](CC(C)C)C(=O)N[C@@H](CC(C)C)C(=O)N3C[C@H](O)C[C@H]3C(=O)N(C)[C@@H](CC(C)C)C(=O)N[C@@H](CC(=O)O)C(=O)N[C@@H](CCCNC(=N)N)C(=O)N[C@H](C(N)=O)[C@@H](C)CC)C2=O)C1 (stereo partly drawn) [JAL-1765-2, (AR-314-87)-leu-Leu-Hyp-Nml-Asp-Arg-Ile-NH2] (HELM PEPTIDE1{[CCCCCCCC(=O)[*:2]].[O=C1N(C(Cc2ccccc2)C(=O)[*:2])CCC12CCCN([*:1])C2].[dL].L.[Hyp].[meL].D.R.I.[am]}$$$$V2.0)
CCCCCCCC(=O)N[C@@]1(C)CCN([C@@H](Cc2ccccc2)C(=O)N[C@H](CC(C)C)C(=O)N[C@@H](CC(C)C)C(=O)N2C[C@H](O)C[C@H]2C(=O)N(C)[C@@H](CC(C)C)C(=O)N[C@@H](CC(=O)O)C(=O)N[C@@H](CCCNC(=N)N)C(=O)N[C@H](C(N)=O)[C@@H](C)CC)C1=O [JAL-1774, (AR-314-102)-leu-Leu-Hyp-Nml-Asp-Arg-Ile-NH2]
CCCCCCCC(=O)N1CCC[C@H](C(=O)N[C@@H](Cc2ccccc2)C(=O)N[C@H](CCCN(C)C)C(=O)N[C@@H](CC(C)C)C(=O)N2C[C@H](O)C[C@H]2C(=O)N(C)[C@@H](CC(C)C)C(=O)N[C@@H](CC(=O)O)C(=O)N[C@@H](CCCNC(=N)N)C(=O)NC2CCCCCC2)C1 [JAL-1776, Occ-Sni-Phe-orn(Me2)-Leu-Hyp-Nml-Asp-Arg-Che] (Octanoyl-[X2]F[dOrn(Me2)]L[Hyp][NMeL]DR-NHcycloheptyl)
CCCCCCCC(=O)N1CCC[C@H](C(=O)N[C@@H](Cc2ccccc2)C(=O)N[C@H](CCCCN(C)C)C(=O)N[C@@H](CC(C)C)C(=O)N2C[C@H](O)C[C@H]2C(=O)N(C)[C@@H](CC(C)C)C(=O)N[C@@H](CC(=O)O)C(=O)N[C@@H](CCCNC(=N)N)C(=O)NC2CCCCCC2)C1 [JAL-1777, Occ-Sni-Phe-lys(Me2)-Leu-Hyp-Nml-Asp-Arg-Che] (Octanoyl-[X2]F[dLys(Me2)]L[Hyp][NMeL]DR-NHcycloheptyl)
CCCCCCCC(=O)N1CCC[C@H](C(=O)N[C@@H](Cc2ccccc2)C(=O)N[C@H](CCCCN(C)C)C(=O)N[C@@H](CC(C)C)C(=O)N2C[C@H](O)C[C@H]2C(=O)N(C)[C@@H](CC(C)C)C(=O)N[C@H](C(=O)N[C@@H](CCCNC(=N)N)C(=O)NC2CCCCCC2)C(C)C)C1 [JAL-1779, Occ-Sni-Phe-lys(Me2)-Leu-Hyp-Nml-Val-Arg-Che] (Octanoyl-[X2]F[dLys(Me2)]L[Hyp][NMeL]VR-NHcycloheptyl)
CCCCCCCC(=O)N1CCC[C@H](C(=O)N[C@@H](Cc2ccccc2)C(=O)N[C@H](CCCN(C)C)C(=O)N[C@@H](CC(C)C)C(=O)N2C[C@H](O)C[C@H]2C(=O)N(C)[C@@H](CC(C)C)C(=O)N[C@H](C(=O)N[C@@H](CCCNC(=N)N)C(=O)N[C@H](C(N)=O)[C@@H](C)CC)C(C)C)C1 [JAL-1782, Occ-Sni-Phe-orn(Me2)-Leu-Hyp-Nml-Val-Arg-Ile-NH2] (Octanoyl-[X2]F[dOrn(Me2)]L[Hyp][NMeL]VRI-NH2)
CCCCCCCC(=O)N1CCC[C@H](C(=O)N[C@@H](Cc2ccccc2)C(=O)N[C@H](CCN(C)C)C(=O)N[C@@H](CC(C)C)C(=O)N2C[C@H](O)C[C@H]2C(=O)N(C)[C@@H](CC(C)C)C(=O)N[C@H](C(=O)N[C@@H](CCCNC(=N)N)C(=O)NC2CCCCCC2)C(C)C)C1 [JAL-1784, Occ-Sni-Phe-dab(Me2)-Leu-Hyp-Nml-Val-Arg-Che] (Octanoyl-[X2]F[X9]L[Hyp][NMeL]VR-NHcycloheptyl)
